Entries after “also recorded” stand apart in the source; their conditions may differ.
System: hairless mice Hos:HR1
Assay: Stratum corneum water-retaining function (moisture in the keratin, corneometer, back skin)
Type: in vivo
Conditions: intragastric once a day for 28 days, menaquinone-7 10 mg/kg, collagen hydrolysate 80 mg/kg, soyasapogenol 50 mg/kg
Procedure: In addition to the reference diet, the test substances shown in Table 6 were administered to the study groups in Examples and Comparative Examples. By dissolving the test substances in a 0.5% carboxymethyl cellulose sodium solution (hereinafter referred to as CMC-Na solution), the composition (skin function improving agent) was prepared.
Forty two hairless mice Hos:HR1 (male, 5-week old) were prepared. Through the 1-week acclimation period and the test period, the mice were freely fed a reference diet (product name: CRF-1, manufactured by Oriental Yeast Co., Ltd.) and water. The insolation condition was set to day and night every 12 hours. After the acclimation period, grouping of 6 mice/group was performed so that the body weight between groups was homogenous.
Continuous and forced intragastric administration of the above composition was performed to the mice once a day for 28 days using a stomach tube. The reference diet and 0.05 mL per 10 g of body weight of a 0.5% CMC-Na solution were administered to the control group.
The keratin usually contains 20% to 30% of water. […] By measuring the moisture in the keratin, the stratum corneum water-retaining function (i.e., skin moisture-retaining function) of a skin function improving agent can be evaluated. […]

Compound: CC(C)=CCC/C(C)=C/CC/C(C)=C/CC/C(C)=C/CC/C(C)=C/CC/C(C)=C/CC/C(C)=C/CC1=C(C)C(=O)c2ccccc2C1=O [Comparative Example 1, menaquinone-7]
- keratin moisture fluctuation value (moisture in the keratin, day 28 minus day before administration): no function of keratin water retention; also recorded: no stratum corneum water-retaining function
- keratin moisture fluctuation value (moisture in the keratin, day 28 minus day before administration) (listed as menaquinone-7): does not exert the keratin water-retaining function; also recorded: does not exert the stratum corneum water-retaining function
